Experimental data as given in patent US9029332B2, “Cross-linked peptides and proteins, methods of making same, and uses thereof” (The Research Foundation for The State University of New York, priority 2010, dated 2015).
Numbered stars: 1 amine (or outer) side, 2 acyl side, 3 side chain; on linkers, the order of the positions; unused ones are H or OH. Bridge positions count the residues as written; N and C are the ends. Square brackets hold non-standard residues; d marks the D form. Peptide text beside a SMILES is read from it. CH2(3,3'-bipyridine-6,6')CH2 = c1cc(C[*:1])ncc1-c1ccc(C[*:2])nc1

How the values were obtained:
[1] = biological target: T1, GST-Mcl-1 (Homo sapiens, UniProt Q07820); assay: FP binding affinity of fluorescein-labeled peptides, Mcl-1; details: FP assay, fluorescein-labeled peptide
[2] = biological target: GST-Bcl-xL (Homo sapiens, UniProt Q07817); assay: FP binding affinity of fluorescein-labeled peptides, Bcl-xL; details: FP assay, fluorescein-labeled peptide; read-out: GST-Bcl-xL Kd
[3] = system: HeLa cells; assay: Cell viability assay (CellTiter-Glo, ATP) and DIC imaging, cytotoxicity; assay type: cell-based; details: 10 μM, 2 hours; DIC channel and ATP assay
Procedure: (§1) FIG. 8. (a) Confocal images of fixed HeLa cells after treatment with 10 μM of fluorescein-conjugated peptides for 2 hours. Scale bar=50 μm. (b) Cell viability assay using the CellTiter-Glo reagent.
Cell Viability Assay. HeLa cells were seeded into an opaque 96-well plate at a density of 1×10^4 per well in 100 μL DMEM medium supplemented with 10% FBS and the cells were allowed to grow in a 37° C. 5% CO2 incubator for 48 hrs to reach confluency of around 80%. Prior to the compound treatment, the medium was replaced with serum-free medium and the cells were incubated for 30 minutes. Appropriate amounts of peptides (1 mM in DMSO) were then added to obtain a final concentration of 10 μM and the cells were incubated at 37° C. for 2 hours. Afterwards, the plate was allowed to stand at room temperature for 30 minutes before 100 μL of Cell-Titer Glow reagent (Promega) was added. The plate was incubated at room temperature for 10 minutes. The luminescence signals were recorded with an FLX 800 luminescence plate reader (BioTek). The plotted data represented the average of the readings from 4 separate wells.

[4] = system: HeLa cells; assay: FACS analysis of cell permeability of fluorescein-conjugated peptides; assay type: cell-based; details: 10 μM fluorescein-conjugated peptide, 2 h
Procedure: FACS Analysis. HeLa Cells were cultured in DMEM medium supplemented with 10% fetal bovine serum in 6-well plate in a 37° C., 5% CO2 incubator to reach confluency of around 70%. The cells were then washed twice with PBS before switching to serum-free DMEM medium. After standing in the incubator for 30 minutes, appropriate amounts of peptides (1 mM in DMSO) were added to the culture plate to obtain a final peptide concentration of 10 μM. Cells were incubated at 37° C. for additional 2 hrs. Then the medium was removed and the cells were washed with PBS (3×) followed by treatment with trypsin to detach the cells. After a brief low-speed centrifugation, the HeLa cells were collected and re-suspended in PBS for the FACS analysis.

[5] = system: HeLa cells; assay: Confocal microscopy of fixed HeLa cells, cellular fluorescence; assay type: cell-based; details: 10 μM fluorescein-conjugated peptide, 2 hours
Procedure: as §1
HeLa Cells were seeded into 35 mm glass bottom microwell dishes (MatTek, Ashland, Mass.) at a density of 3×105 in DMEM medium supplemented with 10% fetal bovine serum, and the cells were allowed to grow in a 37° C. 5% CO2 incubator for 48 hours. After removing medium, the cells were washed twice with PBS and then incubated in serum-free DMEM medium for 30 minutes. Appropriate amounts of peptides (1 mM in DMSO) were then added to obtain a final concentration of 10 μM and cells were incubated at 37° C. for 2 hours. After PBS wash, cells were treated with 4% formaldehyde in PBS for 20 minutes at room temperature. The fixation medium was removed and the cells were washed with PBS (3×) before placing cells into the low florescent mounting medium for fluorescent imaging acquisition.

[6] = Circular dichroism, percent helicity; assay type: physicochemical; details: compared to the linear NoxaBH3 peptide, 50 μM in 20% ACN/H2O
Procedure: FIG. 12. […] The peptides were dissolved in 20% ACN/H2O for a final concentration of 50 μM.
Circular Dichroism Study. […] The spectra were recorded in the wavelength range of 190-250 nm and averaged over 3 scans with a resolution of 0.5 nm, a bandwidth of 1.0 nm and a response time of 4 s. The sensitivity and the speed of the spectrometer were set to 100 mdeg and 50 nm/min, respectively. All peptides were dissolved in 20% acetonitrile/H2O to reach final concentration of 50 μM.

[7] = biological target: Mcl-1 (Homo sapiens, UniProt Q07820); assay: ELISA of cross-linked Noxa peptides; assay type: binding
[8] = system: HeLa cells; assay: Cellular uptake of fluorescein-labeled Noxa peptides by FACS and fluorescence microscopy; assay type: cell-based; details: 10 μM fluorescein-labeled peptide, 2 hours
Procedure: FIG. 13. […] (a) Flow cytometry analysis of cell permeability of the FITC-labeled linear or stapled peptide. HeLa cells were treated with 10 μM of fluorescein-labeled peptides in serum-free DMEM medium for 2 hours followed by fixation with formaldehyde. (b) Fluorescent micrographs of HeLa cells treated with 10 μM of fluorescein-labeled (Fl) linear or cross-linked NoxaBH3 peptide. Scale bar=50 μm.
To investigate cellular uptake of the cross-linked peptides, the N-terminal fluorescein-labeled cross-linked NoxaBH3 peptides (5a, 6a, 7a, 8a) and linear peptide Fl-Noxa-(75-93)-C75A were prepared and their uptakes into HeLa cells were examined by both FACS and fluorescence microscopy. […] To examine whether the cross-linked peptides induce apoptosis, Mcl-1-overexpressing Raji cells and K562 cells co-transfected with Mcl-1/BimEL were treated with the cross-linked peptides and the cell viabilities were measured by CellTiter-Glo reagent. […] For the remaining peptides, the following SEQ ID NOs apply: peptide 9a and 10A are SEQ ID NO:17; 11a and 12 a are SEQ ID NO:18; 5c, 5d, 5e, Fluo-5a, Fluo-6a, and Fluo-6b are SEQ ID NO:16; Fluo-NoxaB^75-94-C75A is SEQ ID NO:15; and Fluo-71 is SEQ ID NO:17.

[9] = biological target: T1, GST-Mcl-1; assay: Competitive fluorescence polarization assay; assay type: binding
Procedure: Competitive Florescence Polarization Assay. The binding affinity of the Noxa peptides toward GST-Mcl-1 was determined in a competitive fluorescence polarization assay with the fluorescein-labeled Bak or Bim. Briefly, fluorescein-labeled Bak was incubated with GST-Mcl-1 in a binding buffer (PBS, 0.005% Tween-20, pH7.4) at room temperature in a 96-well microtiter plate. […] The reading was repeated at various time points to ensure that the competition has reached equilibrium.

T1 sequence (Q07820 whole entry): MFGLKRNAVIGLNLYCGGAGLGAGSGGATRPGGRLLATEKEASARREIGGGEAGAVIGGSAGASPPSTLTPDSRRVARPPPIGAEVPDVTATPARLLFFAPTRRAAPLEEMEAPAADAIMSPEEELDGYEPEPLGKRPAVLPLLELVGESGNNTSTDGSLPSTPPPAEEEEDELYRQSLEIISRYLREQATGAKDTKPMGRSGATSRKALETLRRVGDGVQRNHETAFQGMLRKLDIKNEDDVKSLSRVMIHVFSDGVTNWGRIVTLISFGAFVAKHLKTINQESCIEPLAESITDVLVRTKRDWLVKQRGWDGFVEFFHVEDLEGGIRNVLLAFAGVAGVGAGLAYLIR
Sequence of GST-Bcl-xL (Q07817 whole entry): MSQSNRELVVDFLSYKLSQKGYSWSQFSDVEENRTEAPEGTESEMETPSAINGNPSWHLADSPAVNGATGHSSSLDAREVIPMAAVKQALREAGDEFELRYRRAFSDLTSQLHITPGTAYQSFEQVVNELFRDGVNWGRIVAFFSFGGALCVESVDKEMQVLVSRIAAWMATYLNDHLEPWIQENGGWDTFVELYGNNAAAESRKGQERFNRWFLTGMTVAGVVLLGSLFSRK
Sequence of Mcl-1 (Q07820 whole entry, species assumed): as the sequence (Q07820 whole entry) above

Compound | Kd [1] [nM] | Kd [2] [nM] | cytotoxicity [3] | cellular fluorescence, FITC channel [5] | enhancement in percent helicity [6] | cellular uptake [8] | further results
CC(=O)N[C@@H](CC(C)C)C(=O)N[C@H](C(=O)N[C@@H](Cc1ccccc1)C(=O)N[C@H]1CSCc2ccc(cn2)-c2ccc(nc2)CSC[C@@H](C(=O)N[C@@H](CO)C(N)=O)NC(=O)[C@H](CC(C)C)NC(=O)[C@H](CCCNC(=N)N)NC(=O)[C@H](C)NC(=O)[C@H](Cc2c[nH]c3ccccc23)NC(=O)[C@H](Cc2ccc(O)cc2)NC(=O)[C@H](CCCNC(=N)N)NC1=O)[C@@H](C)O [Peptide 2b, LTFC″RYWARLC″S] (Ac-LTFCRYWARLCS-NH2; linker 4-11 via CH2(3,3'-bipyridine-6,6')CH2) | – | – | apparent cytotoxicity | strongest cellular fluorescence | – | – | increase in mean fluorescence / permeability by arginine substitution ([4]; compared to charge-neutral counterpart): 2 fold; increase in mean fluorescence by Bpy cross-linking ([4]; over linear counterpart): ~5 fold
CC(=O)N[C@@H](CC(C)C)C(=O)N[C@H](C(=O)N[C@@H](Cc1ccccc1)C(=O)N[C@@H]1CSCc2ccc(cn2)-c2ccc(nc2)CSC[C@@H](C(=O)N[C@@H](CO)C(N)=O)NC(=O)[C@H](CC(C)C)NC(=O)[C@H](CCCNC(=N)N)NC(=O)[C@H](C)NC(=O)[C@H](Cc2c[nH]c3ccccc23)NC(=O)[C@H](Cc2ccc(O)cc2)NC(=O)[C@H](CCCNC(=N)N)NC1=O)[C@@H](C)O [Peptide 4b, LTFc″RYWARLC″S] (Ac-LTF[dC]RYWARLCS-NH2; linker 4-11 via CH2(3,3'-bipyridine-6,6')CH2; C-terminus assumed) | – | – | apparent cytotoxicity | strongest cellular fluorescence | – | – | –
CC[C@H](C)[C@@H]1NC(=O)[C@H](CCCNC(=N)N)NC(=O)[C@H](CCCNC(=N)N)NC(=O)[C@H](CC(C)C)NC(=O)[C@H](NC(=O)[C@H](C)NC(=O)[C@H](C)NC(C)=O)CSCc2ccc(cc2)-c2ccc(cc2)CSC[C@@H](C(=O)N[C@H](C(=O)N[C@@H](CC(N)=O)C(=O)N[C@@H](CC(C)C)C(=O)N[C@@H](CCCNC(=N)N)C(=O)N[C@@H](CCC(N)=O)C(=O)N[C@@H](CCCCN)C(=O)N[C@@H](CC(C)C)C(=O)N[C@@H](CC(C)C)C(=O)N[C@@H](CC(N)=O)C(N)=O)C(C)C)NC(=O)[C@H](CC(=O)O)NC(=O)CNC1=O [Peptide 6a] | – | – | – | – | roughly 2 fold | robust uptakes | IC50 [7]: 260 nM; IC50 ([9]; Noxa peptides, three repeats ± SD, read-out: FP, IC50): 73 ± 18 nM; increase in activity in FPA ([9]; compared to the parent linear peptide): 37 fold
CC[C@H](C)[C@@H]1NC(=O)[C@H](CCCNC(=N)N)NC(=O)[C@H](CCCNC(=N)N)NC(=O)[C@H](CC(C)C)NC(=O)[C@@](C)(NC(=O)[C@H](C)NC(=O)[C@H](C)NC(C)=O)CSCc2ccc(cc2)-c2ccc(cc2)CSC[C@@](C)(C(=O)N[C@H](C(=O)N[C@@H](CC(N)=O)C(=O)N[C@@H](CC(C)C)C(=O)N[C@@H](CCCNC(=N)N)C(=O)N[C@@H](CCC(N)=O)C(=O)N[C@@H](CCCCN)C(=O)N[C@@H](CC(C)C)C(=O)N[C@@H](CC(C)C)C(=O)N[C@@H](CC(N)=O)C(N)=O)C(C)C)NC(=O)[C@H](CC(=O)O)NC(=O)CNC1=O [Peptide 8a] | – | – | – | – | ~3 fold | robust uptakes | –

More lines, main results first:

Kd [1] [nM] | Kd [2] [nM] | Compound | cytotoxicity [3] | cellular fluorescence, FITC channel [5] | enhancement in percent helicity [6] | cellular uptake [8] | further results
0.8 ± 0.1 | > 2000 | CC[C@H](C)[C@@H]1NC(=O)[C@H](CCCNC(=N)N)NC(=O)[C@H](CCCNC(=N)N)NC(=O)[C@H](CC(C)C)NC(=O)[C@@H](NC(=O)[C@H](C)NC(=O)[C@H](C)NC(=O)CCCCCNC(=S)Nc2ccc3c(c2)C(=O)OC32c3ccc(O)cc3Oc3cc(O)ccc32)CSCc2ccc(cc2)-c2ccc(cc2)CSC[C@@H](C(=O)N[C@H](C(=O)N[C@@H](CC(N)=O)C(=O)N[C@@H](CC(C)C)C(=O)N[C@@H](CCCNC(=N)N)C(=O)N[C@@H](CCC(N)=O)C(=O)N[C@@H](CCCCN)C(=O)N[C@@H](CC(C)C)C(=O)N[C@@H](CC(C)C)C(=O)N[C@@H](CC(N)=O)C(N)=O)C(C)C)NC(=O)[C@H](CC(=O)O)NC(=O)CNC1=O [Fl-5a] | – | – | – | – | –
0.7 ± 0.1 | > 2000 | CC[C@H](C)[C@@H]1NC(=O)[C@H](CCCNC(=N)N)NC(=O)[C@H](CCCNC(=N)N)NC(=O)[C@H](CC(C)C)NC(=O)[C@H](NC(=O)[C@H](C)NC(=O)[C@H](C)NC(=O)CCCCCNC(=S)Nc2ccc3c(c2)C(=O)OC32c3ccc(O)cc3Oc3cc(O)ccc32)CSCc2ccc(cc2)-c2ccc(cc2)CSC[C@@H](C(=O)N[C@H](C(=O)N[C@@H](CC(N)=O)C(=O)N[C@@H](CC(C)C)C(=O)N[C@@H](CCCNC(=N)N)C(=O)N[C@@H](CCC(N)=O)C(=O)N[C@@H](CCCCN)C(=O)N[C@@H](CC(C)C)C(=O)N[C@@H](CC(C)C)C(=O)N[C@@H](CC(N)=O)C(N)=O)C(C)C)NC(=O)[C@H](CC(=O)O)NC(=O)CNC1=O [Fl-6a] | – | – | – | – | –
